Like-named read-outs stand apart in the source and are kept apart here.
Columns and labels:
Format in all cases: cell-based
[1] = tested on: breast cancer cells (MDA-MB-231); experiment: In vitro potency (CellTiter-Glo, 96 h), MDA-MB-231; settings: Homo sapiens, MDA-MB-231, 96 h
How it was run: (§1)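 Cells in log-phase growth seeded 24 h in RPMI 1640 with 20% FBS, then exposed to serially diluted ADC or CPT free drug for 96 h at 37 °C. Growth inhibition read by CellTiter-Glo luminescence; IC50 reported in ng/mL or nmol/L.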

[2] = tested on: anaplastic large cell lymphoma cells (DELBVR); experiment: In vitro potency (CellTiter-Glo, 96 h), DELBVR
How it was run: as §1

[3] = tested on: Ls174T cells; experiment: In vitro potency (CellTiter-Glo, 96 h), Ls174T; settings: Homo sapiens
How it was run: (§2)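 Growth inhibition after 96 h at 37 °C with test article, measured by luminescence; cells in RPMI 1640, 20% FBS.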

[4] = tested on: melanoma cells (A2058); experiment: In vitro potency (CellTiter-Glo, 96 h), A2058; settings: Homo sapiens, A2058, 96 h
How it was run: (§3)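 Antibody-drug conjugates, prepared as dilution series in culture medium, were added to cells seeded a day earlier in RPMI 1640 supplemented with 20% FBS. After four days at 37 °C, luminescence measured growth inhibition.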

[5] = tested on: anaplastic large cell lymphoma cells (DEL); experiment: In vitro potency (CellTiter-Glo, 96 h), DEL
How it was run: as §1

[6] = tested on: B-lymphocyte cancer cells (SU-DHL4); experiment: In vitro potency (CellTiter-Glo, 96 h), SU-DHL-4; settings: Homo sapiens, SU-DHL-4, 96 h
How it was run: as §1

[7] = tested on: non-small-cell lung cancer cells (Calu1); experiment: In vitro potency (CellTiter-Glo, 96 h), Calu1; settings: Homo sapiens, Calu-1, 96 h
How it was run: as §3

[8] = tested on: anaplastic large cell lymphoma cells (Karpas299); experiment: In vitro potency (CellTiter-Glo, 96 h), Karpas299; settings: Homo sapiens, KARPAS-299, 96 h
How it was run: as §1

[9] = tested on: pancreatic cancer cells (BxPC3); experiment: In vitro potency (CellTiter-Glo, 96 h), BxPC3; settings: Homo sapiens, BXPC-3, 96 h
How it was run: as §2

[10] = tested on: acute myeloid leukemia cells (MOLM-13); experiment: In vitro potency (CellTiter-Glo, 96 h), MOLM-13; settings: Homo sapiens, MOLM-13, 96 h
How it was run: as §2

[11] = tested on: renal carcinoma cells (786-O); experiment: In vitro potency (CellTiter-Glo, 96 h), 786-O; settings: Homo sapiens, 786-0, 96 h
How it was run: as §1

[12] = tested on: Hodgkin's lymphoma cells (L540cy); experiment: In vitro potency (CellTiter-Glo, 96 h), L540cy
How it was run: as §1

[13] = CPT free drugs, Table 24, CellTiter-Glo after 96 h exposure, read-out: IC50 (nmol/L) MDAMB231
[14] = CPT free drugs, Table 24, CellTiter-Glo after 96 h exposure, read-out: IC50 (nmol/L) DELBVR
[15] = LS174T, CPT free drugs, Table 24, CellTiter-Glo after 96 h exposure, read-out: IC50 (nmol/L) Ls174T
[16] = CPT free drugs, Table 24, CellTiter-Glo after 96 h exposure, read-out: IC50 (nmol/L) A2058
[17] = CPT free drugs, Table 24, CellTiter-Glo after 96 h exposure, read-out: IC50 (nmol/L) DEL
[18] = CPT free drugs, Table 24, CellTiter-Glo after 96 h exposure, read-out: IC50 (nmol/L) SU-DHL-4
[19] = CPT free drugs, Table 24, CellTiter-Glo after 96 h exposure, read-out: IC50 (nmol/L) Calu1
[20] = CPT free drugs, Table 24, CellTiter-Glo after 96 h exposure, read-out: IC50 (nmol/L) Karpas299
[21] = CPT free drugs, Table 24, CellTiter-Glo after 96 h exposure, read-out: IC50 (nmol/L) BxPC3
[22] = CPT free drugs, Table 24, CellTiter-Glo after 96 h exposure, read-out: IC50 (nmol/L) MOLM-13
[23] = CPT free drugs, Table 24, CellTiter-Glo after 96 h exposure, read-out: IC50 (nmol/L) 786-O
[24] = CPT free drugs, Table 24, CellTiter-Glo after 96 h exposure, read-out: IC50 (nmol/L) L540cy
[25] = read-out: IC50 (nmol/L) MDAMB231, CPT free drugs, Table 24, CellTiter-Glo after 96 h exposure
[26] = read-out: IC50 (nmol/L) DELBVR, CPT free drugs, Table 24, CellTiter-Glo after 96 h exposure
[27] = LS174T, 96 h, read-out: IC50 (nmol/L) Ls174T, CPT free drugs, Table 24, CellTiter-Glo after 96 h exposure
[28] = read-out: IC50 (nmol/L) DEL, CPT free drugs, Table 24, CellTiter-Glo after 96 h exposure
[29] = read-out: IC50 (nmol/L) SU-DHL-4, CPT free drugs, Table 24, CellTiter-Glo after 96 h exposure
[30] = read-out: IC50 (nmol/L) Karpas299, CPT free drugs, Table 24, CellTiter-Glo after 96 h exposure
[31] = read-out: IC50 (nmol/L) BxPC3, CPT free drugs, Table 24, CellTiter-Glo after 96 h exposure
[32] = read-out: IC50 (nmol/L) MOLM-13, CPT free drugs, Table 24, CellTiter-Glo after 96 h exposure
[33] = read-out: IC50 (nmol/L) 786-O, CPT free drugs, Table 24, CellTiter-Glo after 96 h exposure
[34] = read-out: IC50 (nmol/L) L540cy, CPT free drugs, Table 24, CellTiter-Glo after 96 h exposure

CC[C@@]1(O)C(=O)OCc2c1cc1n(c2=O)Cc2c-1nc1cc3c(cc1c2CNCCCS(N)(=O)=O)OCO3 [Compound 7e]
IC50 ([1]; read-out: MDAMB231 IC50, camptothecin free drug, 96 h): 124 nmol/L | IC50 ([2]; read-out: DELBVR IC50, camptothecin free drug, 96 h): 14 nmol/L | IC50 ([3]; LS174T, 96 h, read-out: Ls174T IC50, camptothecin free drug, 96 h): 17 nmol/L | IC50 ([4]; read-out: A2058 IC50): 5 nmol/L | IC50 ([5]; read-out: DEL IC50, camptothecin free drug, 96 h): 8 nmol/L | IC50 ([6]; read-out: SU-DHL-4 IC50, camptothecin free drug, 96 h): 16 nmol/L | IC50 ([7]; read-out: Calu1 IC50): 503 nmol/L | IC50 ([8]; read-out: Karpas299 IC50, camptothecin free drug, 96 h): 27 nmol/L | IC50 ([9]; read-out: BxPC3 IC50, camptothecin free drug, 96 h): 21 nmol/L | IC50 ([10]; read-out: MOLM-13 IC50, camptothecin free drug, 96 h): 257 nmol/L | IC50 ([11]; read-out: 786-O IC50, camptothecin free drug, 96 h): 25 nmol/L | IC50 ([12]; read-out: L540cy IC50, camptothecin free drug, 96 h): 13 nmol/L

CC[C@@]1(O)C(=O)OCc2c1cc1n(c2=O)Cc2c-1nc1ccc(Cl)cc1c2CN [Compound 2c]
IC50 [1, 13]: 6 nmol/L | IC50 [2, 14]: 3.3 nmol/L | IC50 [3, 15]: 3.9 nmol/L | IC50 [4, 16]: 3 nmol/L | IC50 [5, 17]: 1.7 nmol/L | IC50 [6, 18]: 3 nmol/L | IC50 [7, 19]: 45 nmol/L | IC50 [8, 20]: 8 nmol/L | IC50 [9, 21]: 19 nmol/L | IC50 [10, 22]: 21 nmol/L | IC50 [11, 23]: 6 nmol/L | IC50 [12, 24]: 5 nmol/L

CC[C@@]1(O)C(=O)OCc2c1cc1n(c2=O)Cc2c-1nc1cc(F)c(C)c(-c3ccc(CO)s3)c1c2CN [Compound 6e]
IC50 ([1]; Table 28, CPT free drugs, breast cancer cells MDA-MB-231, 96 h, CellTiter-Glo, read-out: MDAMB231 IC50): 57 nmol/L | IC50 ([2]; Table 28, CPT free drugs, anaplastic large cell lymphoma cells DELBVR, CellTiter-Glo, read-out: DELBVR IC50): 4 nmol/L | IC50 ([3]; Table 28, CPT free drugs, Ls174T cells, 96 h, CellTiter-Glo, read-out: Ls174T IC50): 17 nmol/L | IC50 ([4]; Table 28, CPT free drugs, melanoma cells A2058, 96 h, CellTiter-Glo, read-out: A2058 IC50): 11 nmol/L | IC50 ([5]; Table 28, CPT free drugs, anaplastic large cell lymphoma cells DEL, CellTiter-Glo, read-out: DEL IC50): 4 nmol/L | IC50 ([6]; Table 28, CPT free drugs, B-lymphocyte cancer cells SU-DHL4, 96 h, CellTiter-Glo, read-out: SU-DHL-4 IC50): 7 nmol/L | IC50 ([7]; read-out: Calu1 IC50): 155 nmol/L | IC50 ([8]; Table 28, CPT free drugs, anaplastic large cell lymphoma cells Karpas299, 96 h, CellTiter-Glo, read-out: Karpas299 IC50): 31 nmol/L | IC50 ([9]; Table 28, CPT free drugs, pancreatic cancer cells BxPC3, 96 h, CellTiter-Glo, read-out: BxPC3 IC50): 65 nmol/L | IC50 ([10]; Table 28, CPT free drugs, acute myeloid leukemia cells MOLM-13, 96 h, CellTiter-Glo, read-out: MOLM-13 IC50): 17 nmol/L | IC50 ([11]; Table 28, CPT free drugs, renal carcinoma cells 786-O, 96 h, CellTiter-Glo, read-out: 786-O IC50): 29 nmol/L | IC50 ([12]; Table 28, CPT free drugs, Hodgkin's lymphoma cells L540cy, CellTiter-Glo, read-out: L540cy IC50): 18 nmol/L

CC[C@@]1(O)C(=O)OCc2c1cc1n(c2=O)Cc2c-1nc1ccc3c(c1c2CN)OCC3 [Compound 2t]
IC50 [1, 13]: 73 nmol/L | IC50 [2, 14]: 33 nmol/L | IC50 [3, 15]: 18 nmol/L | IC50 [4, 16]: 39 nmol/L | IC50 [5, 17]: 18 nmol/L | IC50 [6, 18]: 51 nmol/L | IC50 [7, 19]: ≥ 1000 nmol/L | IC50 [8, 20]: 133 nmol/L | IC50 [9, 21]: 230 nmol/L | IC50 [10, 22]: 179 nmol/L | IC50 [11, 23]: 101 nmol/L | IC50 [12, 24]: 43 nmol/L

CC[C@@]1(O)C(=O)OCc2c1cc1n(c2=O)Cc2c-1nc1cc3c(cc1c2CN1CCC(NC(=O)OC(C)(C)C)CC1)OCO3 [Compound 7y]
IC50 ([1]; camptothecin free drug, 96 h, read-out: MDAMB231 IC50): 140 nmol/L | IC50 ([2]; camptothecin free drug, read-out: DELBVR IC50): 14 nmol/L | IC50 ([3]; LS174T, camptothecin free drug, 96 h, read-out: Ls174T IC50): 17 nmol/L | IC50 ([4]; camptothecin free drug, 96 h, read-out: A2058 IC50): 7 nmol/L | IC50 ([5]; camptothecin free drug, read-out: DEL IC50): 8 nmol/L | IC50 ([6]; camptothecin free drug, 96 h, read-out: SU-DHL-4 IC50): 23 nmol/L | IC50 ([7]; camptothecin free drug, 96 h, read-out: Calu1 IC50): 896 nmol/L | IC50 ([8]; camptothecin free drug, 96 h, read-out: Karpas299 IC50): 36 nmol/L | IC50 ([9]; camptothecin free drug, 96 h, read-out: BxPC3 IC50): 28 nmol/L | IC50 ([10]; camptothecin free drug, 96 h, read-out: MOLM-13 IC50): 68 nmol/L | IC50 ([11]; camptothecin free drug, 96 h, read-out: 786-O IC50): 31 nmol/L | IC50 ([12]; camptothecin free drug, read-out: L540cy IC50): 15 nmol/L

CC[C@@]1(O)C(=O)OCc2c1cc1n(c2=O)Cc2c-1nc1cc3c(cc1c2CN)CCC3 [Compound 2v]
IC50 [1, 13]: 34 nmol/L | IC50 [2, 14]: 14 nmol/L | IC50 [3, 15]: 17 nmol/L | IC50 [4, 16]: 19 nmol/L | IC50 [5, 17]: 9 nmol/L | IC50 [6, 18]: 33.8 nmol/L | IC50 [7, 19]: 247 nmol/L | IC50 [8, 20]: 37 nmol/L | IC50 [9, 21]: 165 nmol/L | IC50 [10, 22]: 350 nmol/L | IC50 [11, 23]: 33 nmol/L | IC50 [12, 24]: 19 nmol/L

CC[C@@]1(O)C(=O)OCc2c1cc1n(c2=O)Cc2c-1nc1cc(F)c(C)c(C)c1c2CN [Compound 2s]
IC50 [1, 25]: 2 nmol/L | IC50 [2, 26]: 1 nmol/L | IC50 [3, 27]: 3.7 nmol/L | IC50 ([4]; read-out: IC50 (nmol/L) A2058): 1 nmol/L | IC50 [5, 28]: 1 nmol/L | IC50 [6, 29]: 2 nmol/L | IC50 ([7]; read-out: IC50 (nmol/L) Calu1): 22 nmol/L | IC50 [8, 30]: 2 nmol/L | IC50 [9, 31]: 7 nmol/L | IC50 [10, 32]: 18 nmol/L | IC50 [11, 33]: 3 nmol/L | IC50 [12, 34]: 2 nmol/L

CC[C@@]1(O)C(=O)OCc2c1cc1n(c2=O)Cc2c-1nc1cc(F)c(C)c(Cl)c1c2CN [Compound 2y]
IC50 [1, 25]: 15 nmol/L | IC50 [2, 26]: 1 nmol/L | IC50 [3, 27]: 3 nmol/L | IC50 ([4]; read-out: IC50 (nmol/L) A2058): 1 nmol/L | IC50 [5, 28]: 1 nmol/L | IC50 [6, 29]: 1 nmol/L | IC50 ([7]; read-out: IC50 (nmol/L) Calu1): 15 nmol/L | IC50 [8, 30]: 2 nmol/L | IC50 [9, 31]: 6 nmol/L | IC50 [10, 32]: 16 nmol/L | IC50 [11, 33]: 3 nmol/L | IC50 [12, 34]: 1 nmol/L

CC[C@@]1(O)C(=O)OCc2c1cc1n(c2=O)Cc2c-1nc1cc(C)c(C)c(F)c1c2CN [Compound 2o]
IC50 [1, 13]: 37 nmol/L | IC50 [2, 14]: 16 nmol/L | IC50 [3, 15]: 19.3 nmol/L | IC50 [4, 16]: 18 nmol/L | IC50 [5, 17]: 10 nmol/L | IC50 [6, 18]: 18 nmol/L | IC50 [7, 19]: 409 nmol/L | IC50 [8, 20]: 37 nmol/L | IC50 [9, 21]: > 1000 nmol/L | IC50 [10, 22]: 349 nmol/L | IC50 [11, 23]: 66 nmol/L | IC50 [12, 24]: 20 nmol/L
